Data taken from patent US9689021B2, “Method for measuring beta-lactam antibiotics” (priority 2011, dated 2017).
Where two headings read alike, the source gives them in different places.

Legend:
[1] = test system: Oxa-29 class D beta-lactamase; assay: BLAC2 method, nitrocefin (CPR) rate with Oxa-29; format: biochemical; details: for linear regression coefficient a (Y=aX+b), Oxa-29 / linear regression coefficient b (Y=aX+b), Oxa-29: BLAC2, X in mg/L
Experimental: (§1) The dilution buffer for the enzymes, CPR, standards and samples was 50 mM PBS buffer, pH 7.0.
(§2) The stock solution of CPR was 200 μM. Standards solution of ampicillin and cefuroxime were prepared at 100, 75, 50, 30, 15, 5, 1 and 0 mg/L.
In the method 2 (BLAC2), 99 μl of sample, 99 μl of CPR and 22 μl of enzyme Oxa-29 were mixed. The reaction kinetics was determined by measuring the absorbance at 482 nm as a function of time. Enzyme activity v0 max was adjusted at +/−0.2 ΔAbs482/min.

[2] = biological target: P99 class C beta-lactamase (Enterobacter cloacae, UniProt P05364); assay: BLAC1 method, nitrocefin (CPR) rate with P99 (Example 7); format: biochemical; details: for linear regression coefficient a (Y=aX+b), P99 / linear regression coefficient b (Y=aX+b), P99: BLAC1, X in mg/L
Chain of P99 class C beta-lactamase (P05364 21-381): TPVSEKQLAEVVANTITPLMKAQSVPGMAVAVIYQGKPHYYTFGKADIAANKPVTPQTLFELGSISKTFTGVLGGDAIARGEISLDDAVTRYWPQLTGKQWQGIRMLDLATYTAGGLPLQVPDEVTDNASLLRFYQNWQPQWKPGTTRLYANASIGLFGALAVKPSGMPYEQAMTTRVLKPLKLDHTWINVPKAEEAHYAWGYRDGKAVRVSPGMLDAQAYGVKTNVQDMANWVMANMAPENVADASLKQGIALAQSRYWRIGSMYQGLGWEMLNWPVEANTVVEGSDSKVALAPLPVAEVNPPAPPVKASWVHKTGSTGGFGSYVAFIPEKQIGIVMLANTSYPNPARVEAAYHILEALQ
Experimental: as §1, §2
In the method 1 (BLAC1), 10 μl of 50-fold diluted sample, 100 μl of CPR and 100 μl of enzyme P99 were mixed. The reaction kinetics was determined by measuring the absorbance at 482 nm as a function of time. Enzyme activity v0 max was adjusted at +/−0.33 ΔAbs482/min.

[3] = biological target: class A beta-lactamase (penicillinase) TEM-1 (Escherichia coli, UniProt P62593); assay: BLAC2 method, nitrocefin (CPR) rate with Tem-1; format: biochemical; details: even at 100 mg/L, fixed CPR
Chain of class A beta-lactamase (penicillinase) TEM-1 (P62593 24-286 limits assumed): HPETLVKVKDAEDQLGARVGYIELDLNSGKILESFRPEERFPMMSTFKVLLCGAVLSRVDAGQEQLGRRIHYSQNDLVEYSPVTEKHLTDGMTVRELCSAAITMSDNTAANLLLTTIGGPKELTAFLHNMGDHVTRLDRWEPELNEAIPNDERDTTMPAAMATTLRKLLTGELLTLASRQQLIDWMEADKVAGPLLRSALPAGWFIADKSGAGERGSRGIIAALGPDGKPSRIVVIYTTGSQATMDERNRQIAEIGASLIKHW
Experimental: In order to determine the concentration of ampicillin in a solution, two beta-lactamases were compared, in particular the class A beta-lactamase (penicillinase) TEM-1 (UniProt: C514X2_ECOLX) and the class C beta-lactamase of Enterobacter cloacae P99 described in Example 1.
The dilution buffer for the enzymes, nitrocefin (CPR), standards and samples was 50 mM PBS buffer, pH 7. The stock solution of CPR was 200 μM. The standard solution of ampicillin was prepared at concentrations of 100, 75, 50, 30, 15, 5, 1 and 0 mg/L.
In the method 2 (BLAC2), 99 μl of sample, 99 μl of CPR and 22 μl of enzyme, i.e. Tem-1 or P99, were mixed. The enzyme activity (v0 max) was adjusted at +/−0.2 ΔAbs482/min.

[4] = biological target: class C beta-lactamase of Enterobacter cloacae P99 (Enterobacter cloacae, UniProt P05364); details: cited from earlier work
Chain of class C beta-lactamase of Enterobacter cloacae P99 (P05364 21-381): as the sequence (P05364 21-381) above

[5] = test system: class C beta-lactamase of Enterobacter cloacae 908R; details: cited from earlier work
[6] = biological target: class C beta-lactamase of Citrobacter freundii (Citrobacter freundii, UniProt P05193); details: cited from earlier work
Chain of class C beta-lactamase of Citrobacter freundii (P05193 21-381): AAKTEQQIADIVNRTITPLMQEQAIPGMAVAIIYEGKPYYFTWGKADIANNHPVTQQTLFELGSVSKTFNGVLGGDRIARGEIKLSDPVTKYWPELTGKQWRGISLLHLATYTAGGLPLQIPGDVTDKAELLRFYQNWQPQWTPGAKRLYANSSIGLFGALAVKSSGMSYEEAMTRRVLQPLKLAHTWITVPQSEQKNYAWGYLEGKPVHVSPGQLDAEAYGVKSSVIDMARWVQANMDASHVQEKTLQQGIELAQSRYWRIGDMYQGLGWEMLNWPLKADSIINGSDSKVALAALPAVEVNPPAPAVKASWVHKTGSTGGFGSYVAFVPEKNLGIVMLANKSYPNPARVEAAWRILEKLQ

[7] = biological target: class C beta-lactamase of Escherichia coli K12 (Escherichia coli, UniProt P00811); details: cited from earlier work
Chain of class C beta-lactamase of Escherichia coli K12 (P00811 20-377): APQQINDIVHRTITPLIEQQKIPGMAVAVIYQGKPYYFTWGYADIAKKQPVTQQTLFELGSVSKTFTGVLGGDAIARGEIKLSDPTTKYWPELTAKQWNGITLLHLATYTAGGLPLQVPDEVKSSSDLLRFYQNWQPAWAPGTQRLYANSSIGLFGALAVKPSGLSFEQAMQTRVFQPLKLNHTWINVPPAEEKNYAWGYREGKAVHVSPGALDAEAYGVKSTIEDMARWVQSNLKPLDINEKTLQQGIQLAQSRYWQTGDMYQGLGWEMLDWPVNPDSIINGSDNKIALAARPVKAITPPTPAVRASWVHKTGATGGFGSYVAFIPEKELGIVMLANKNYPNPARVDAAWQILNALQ

[8] = biological target: class C beta-lactamase of Serratia marcescens (Serratia marcescens, UniProt P18539); details: Serratia marcescens, cited from earlier work; for Km: read-out: Km
Chain of class C beta-lactamase of Serratia marcescens (P18539 22-376): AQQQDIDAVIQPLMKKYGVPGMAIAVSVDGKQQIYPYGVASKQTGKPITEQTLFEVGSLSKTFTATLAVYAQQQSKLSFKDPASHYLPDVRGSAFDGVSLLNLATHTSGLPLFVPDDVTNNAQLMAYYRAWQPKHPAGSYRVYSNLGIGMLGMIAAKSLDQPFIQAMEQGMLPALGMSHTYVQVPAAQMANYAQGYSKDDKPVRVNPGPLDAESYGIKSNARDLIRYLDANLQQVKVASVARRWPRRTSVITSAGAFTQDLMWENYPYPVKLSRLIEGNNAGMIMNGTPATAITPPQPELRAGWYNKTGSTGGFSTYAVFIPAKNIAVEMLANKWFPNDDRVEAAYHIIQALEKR

[9] = biological target: class C beta-lactamase of Pseudomonas aeruginosa (Pseudomonas aeruginosa, UniProt P24735); details: Pseudomonas aeruginosa, cited from earlier work; for Km: read-out: Km
Chain of class C beta-lactamase of Pseudomonas aeruginosa (P24735 27-397): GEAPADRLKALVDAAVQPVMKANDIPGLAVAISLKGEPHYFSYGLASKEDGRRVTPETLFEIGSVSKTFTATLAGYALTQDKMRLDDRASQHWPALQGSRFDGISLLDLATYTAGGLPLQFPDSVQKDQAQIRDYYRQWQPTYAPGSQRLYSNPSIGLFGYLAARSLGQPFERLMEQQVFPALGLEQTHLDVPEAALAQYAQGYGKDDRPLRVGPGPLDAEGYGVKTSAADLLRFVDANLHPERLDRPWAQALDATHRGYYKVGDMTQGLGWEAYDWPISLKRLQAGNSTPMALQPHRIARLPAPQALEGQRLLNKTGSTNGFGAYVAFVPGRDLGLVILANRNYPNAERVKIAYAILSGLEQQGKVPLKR

P99A266C [10] = biological target: T1, P99A266C (Enterobacter cloacae, UniProt P05364, A266C); assay: Reaction of immobilized enzyme on ATR element with chromogenic substrate CENTA; format: biochemical, Enterobacter cloacae P99
T1 construct: made in house; host or cells: E. coli BL21(DE3), pET28 vector
T1 sequence (P05364 other isoform, or with tags, fused parts or gaps A266C): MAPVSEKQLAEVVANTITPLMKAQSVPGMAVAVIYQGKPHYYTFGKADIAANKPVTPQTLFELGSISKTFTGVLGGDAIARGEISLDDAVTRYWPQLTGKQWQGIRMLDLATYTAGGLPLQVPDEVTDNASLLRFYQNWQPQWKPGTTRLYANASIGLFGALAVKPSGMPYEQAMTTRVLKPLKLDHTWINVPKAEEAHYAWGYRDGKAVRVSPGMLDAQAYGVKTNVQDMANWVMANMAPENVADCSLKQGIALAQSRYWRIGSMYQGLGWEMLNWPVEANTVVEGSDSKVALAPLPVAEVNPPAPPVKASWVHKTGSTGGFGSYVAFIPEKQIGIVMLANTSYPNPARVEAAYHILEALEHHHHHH
Experimental: On the N-maleimide functionalized ATR element, the class C beta-lactamase P99A266C prepared as in example 2 was bound.
P99A266C binding onto the functionalized crystal was obtained by depositing 10 μL of a solution (phosphate buffer 50 mM, pH 7) of P99A266C enzyme (30 μg/ml) during 1 h, then rinsing with buffer during 15 min at a rate of 35 μL/min.
The immobilized enzyme was able to react rapidly with its chromogenic substrate CENTA: this was controlled by the appearance of the […] coloration.

P99A266C [11] = biological target: T1, P99A266C; assay: FTIR-ATR biosensor binding; design: species or system Enterobacter cloacae P99; details: 50-100 μg/mL, 10-20 min, 35 μl/min
Experimental: A solution of the beta-lactam antibiotic cefuroxim; obtained from Sigma-Aldrich in milliQ water at a concentration of 50-100 μg/mL was passed over the biosensor constructed in Example 3. The solution was passed over the crystal during 10-20 min at a rate of 35 μl/min.
FTIR-ATR spectra were recorded and cefuroxim binding was monitored by following the appearance of its characteristic signal. By subtracting the spectrum of the P99A266C, the spectrum of the acyl-enzyme complex appeared clearly. The intensity of the peak at 1730 cm^−1 allowed the quantitative measurement of cefuroxim binding. […] The structure of the acyl-enzyme complex is represented below.

CC1(C)S[C@@H]2[C@H](NC(=O)[C@H](N)c3ccccc3)C(=O)N2[C@H]1C(=O)O [Ampicillin]
rate of Oxa-29 Class D beta-lactamase ([1]; BLAC2, 1 mg/L): 0.1831 ΔAbs482/min
residual rate minus 1, (vomax/v0)−1, Oxa-29 ([1]; BLAC2, 1 mg/L): 0.048
rate of Oxa-29 Class D beta-lactamase ([1]; BLAC2, 5 mg/L): 0.1680 ΔAbs482/min
residual rate minus 1, (vomax/v0)−1, Oxa-29 ([1]; BLAC2, 5 mg/L): 0.142
rate of Oxa-29 Class D beta-lactamase ([1]; BLAC2, 15 mg/L): 0.1532 ΔAbs482/min
residual rate minus 1, (vomax/v0)−1, Oxa-29 ([1]; BLAC2, 15 mg/L): 0.253
rate of Oxa-29 Class D beta-lactamase ([1]; BLAC2, 30 mg/L): 0.1292 ΔAbs482/min
residual rate minus 1, (vomax/v0)−1, Oxa-29 ([1]; BLAC2, 30 mg/L): 0.485
rate of Oxa-29 Class D beta-lactamase ([1]; BLAC2, 50 mg/L): 0.1056 ΔAbs482/min
residual rate minus 1, (vomax/v0)−1, Oxa-29 ([1]; BLAC2, 50 mg/L): 0.817
rate of Oxa-29 Class D beta-lactamase ([1]; BLAC2, 75 mg/L): 0.0869 ΔAbs482/min
residual rate minus 1, (vomax/v0)−1, Oxa-29 ([1]; BLAC2, 75 mg/L): 1.208
rate of Oxa-29 Class D beta-lactamase ([1]; BLAC2, 100 mg/L): 0.0730 ΔAbs482/min
residual rate minus 1, (vomax/v0)−1, Oxa-29 ([1]; BLAC2, 100 mg/L): 1.629
linear regression coefficient a (Y=aX+b), Oxa-29 [1]: 0.0159
linear regression coefficient b (Y=aX+b), Oxa-29 [1]: 0.0002
rate of P99 class C beta-lactamase ([2]; BLAC1, 1 mg/L): 0.3221 ΔAbs482/min
residual rate minus 1, (vomax/v0)−1, P99 ([2]; BLAC1, 1 mg/L): 0.004
rate of P99 class C beta-lactamase ([2]; BLAC1, 5 mg/L): 0.3207 ΔAbs482/min
residual rate minus 1, (vomax/v0)−1, P99 ([2]; BLAC1, 5 mg/L): 0.008
rate of P99 class C beta-lactamase ([2]; BLAC1, 15 mg/L): 0.3164 ΔAbs482/min
residual rate minus 1, (vomax/v0)−1, P99 ([2]; BLAC1, 15 mg/L): 0.022
rate of P99 class C beta-lactamase ([2]; BLAC1, 30 mg/L): 0.3114 ΔAbs482/min
residual rate minus 1, (vomax/v0)−1, P99 ([2]; BLAC1, 30 mg/L): 0.038
rate of P99 class C beta-lactamase ([2]; BLAC1, 50 mg/L): 0.3008 ΔAbs482/min
residual rate minus 1, (vomax/v0)−1, P99 ([2]; BLAC1, 50 mg/L): 0.075
rate of P99 class C beta-lactamase ([2]; BLAC1, 75 mg/L): 0.2909 ΔAbs482/min
residual rate minus 1, (vomax/v0)−1, P99 ([2]; BLAC1, 75 mg/L): 0.111
rate of P99 class C beta-lactamase ([2]; BLAC1, 100 mg/L): 0.2806 ΔAbs482/min
residual rate minus 1, (vomax/v0)−1, P99 ([2]; BLAC1, 100 mg/L): 0.152
linear regression coefficient a (Y=aX+b), P99 [2]: 0.0015
linear regression coefficient b (Y=aX+b), P99 [2]: 0.0000
inhibition of Tem-1 catalyzed reaction [3]: no inhibition of the reaction was observed
Km [4]: 400 nM
kcat [4]: 0.74 s⁻¹
Km [5]: 400 nM
kcat [5]: 0.53 s⁻¹
Km [6]: 200 nM
kcat [6]: 6.5 s⁻¹
Km [7]: 3500 nM
kcat [7]: 4.2 s⁻¹
kcat [8]: 0.46 s⁻¹
Km [8]: 10 nM
kcat [9]: 4.4 s⁻¹
Km [9]: 500 nM

CO/N=C(\C(=O)N[C@@H]1C(=O)N2C(C(=O)O)=C(COC(N)=O)CS[C@H]12)c1ccco1 [Cefuroxime]
rate of Oxa-29 Class D beta-lactamase ([1]; BLAC2, 1 mg/L): 0.2079 ΔAbs482/min
residual rate minus 1, (vomax/v0)−1, Oxa-29 ([1]; BLAC2, 1 mg/L): 0.072
rate of Oxa-29 Class D beta-lactamase ([1]; BLAC2, 5 mg/L): 0.2025 ΔAbs482/min
residual rate minus 1, (vomax/v0)−1, Oxa-29 ([1]; BLAC2, 5 mg/L): 0.100
rate of Oxa-29 Class D beta-lactamase ([1]; BLAC2, 15 mg/L): 0.2011 ΔAbs482/min
residual rate minus 1, (vomax/v0)−1, Oxa-29 ([1]; BLAC2, 15 mg/L): 0.108
rate of Oxa-29 Class D beta-lactamase ([1]; BLAC2, 30 mg/L): 0.1992 ΔAbs482/min
residual rate minus 1, (vomax/v0)−1, Oxa-29 ([1]; BLAC2, 30 mg/L): 0.118
rate of Oxa-29 Class D beta-lactamase ([1]; BLAC2, 50 mg/L): 0.1897 ΔAbs482/min
residual rate minus 1, (vomax/v0)−1, Oxa-29 ([1]; BLAC2, 50 mg/L): 0.174
rate of Oxa-29 Class D beta-lactamase ([1]; BLAC2, 75 mg/L): 0.1796 ΔAbs482/min
residual rate minus 1, (vomax/v0)−1, Oxa-29 ([1]; BLAC2, 75 mg/L): 0.241
rate of Oxa-29 Class D beta-lactamase ([1]; BLAC2, 100 mg/L): 0.1749 ΔAbs482/min
residual rate minus 1, (vomax/v0)−1, Oxa-29 ([1]; BLAC2, 100 mg/L): 0.274
linear regression coefficient a (Y=aX+b), Oxa-29 [1]: 0.0023
linear regression coefficient b (Y=aX+b), Oxa-29 [1]: 0.0003
rate of P99 class C beta-lactamase ([2]; BLAC1, 1 mg/L): 0.3247 ΔAbs482/min
residual rate minus 1, (vomax/v0)−1, P99 ([2]; BLAC1, 1 mg/L): 0.048
rate of P99 class C beta-lactamase ([2]; BLAC1, 5 mg/L): 0.2763 ΔAbs482/min
residual rate minus 1, (vomax/v0)−1, P99 ([2]; BLAC1, 5 mg/L): 0.232
rate of P99 class C beta-lactamase ([2]; BLAC1, 15 mg/L): 0.1938 ΔAbs482/min
residual rate minus 1, (vomax/v0)−1, P99 ([2]; BLAC1, 15 mg/L): 0.756
rate of P99 class C beta-lactamase ([2]; BLAC1, 30 mg/L): 0.1417 ΔAbs482/min
residual rate minus 1, (vomax/v0)−1, P99 ([2]; BLAC1, 30 mg/L): 1.402
rate of P99 class C beta-lactamase ([2]; BLAC1, 50 mg/L): 0.0957 ΔAbs482/min
residual rate minus 1, (vomax/v0)−1, P99 ([2]; BLAC1, 50 mg/L): 2.556
rate of P99 class C beta-lactamase ([2]; BLAC1, 75 mg/L): 0.0736 ΔAbs482/min
residual rate minus 1, (vomax/v0)−1, P99 ([2]; BLAC1, 75 mg/L): 3.624
rate of P99 class C beta-lactamase ([2]; BLAC1, 100 mg/L): 0.0539 ΔAbs482/min
residual rate minus 1, (vomax/v0)−1, P99 ([2]; BLAC1, 100 mg/L): 5.314
linear regression coefficient a (Y=aX+b), P99 [2]: 0.0518
linear regression coefficient b (Y=aX+b), P99 [2]: 0.0013
reaction of immobilized enzyme with chromogenic substrate when antibiotic fixed (P99A266C [10]): did not occur
binding to P99A266C biosensor (FTIR-ATR) (P99A266C [11]): fixed to P99A266C (acyl-enzyme complex)
kcat [4]: 0.05 s⁻¹
Km ([4]; read-out: Km): 16 nM
kcat [5]: 0.05 s⁻¹
kcat [6]: 0.04 s⁻¹
Km ([6]; read-out: Km): 20 nM
kcat [7]: 0.15 s⁻¹
Km ([7]; read-out: Km): 150 nM
kcat [8]: 0.8 s⁻¹
Km [8]: 600 nM
kcat [9]: 0.05 s⁻¹
Km [9]: 20 nM
